The values below come from US7533723B2, “Well bore treatment fluid” (Schlumberger Technology Corporation, priority 2003, dated 2009).

Where “and” joins values, the source holds several entries; their conditions need not be identical. Identical values can stand only once. Where only a bound is given, the exact number is not on record here.

The text on series [1]: For the case of abietic acid, calcium abietate (Dertocal), polymerised calcium abietate (MERIGRAL™) and the phenolic modified resins (RESENOL™ and GRANOLITE™), insoluble residues were removed by filtration and the numbers given in Table 1 relate to the soluble fraction after filtration.
Series [2] in a line: Well-mixed bottle tests: dilution of treatment fluid with brine or oil. Type of series: physicochemical. To be noted: T=25° C.
Source text: In this case, the DPM solvent is 100% miscible with oil or brine.
Note that the oil and the treatment fluid are miscible.
Series [3] in a line: Selective response in porous media, two feet long sandpacks (water zone / oil zone). Particulars: for Brine permeability reduction corrected for treatment depth: water zone. The protocol: Candidate solvent-based treatment fluids were evaluated in porous media. […] Duplicate two feet long sandpacks were prepared using a specific blend of sand and silica flour.
Experiments were used to evaluate a treatment fluid containing 5 wt % calcium abietate pre-dissolved in a DPM/brine mixture.

The procedure of series [4]:
Sandpack experiments were performed to evaluate the recovery of oil permeability after brine-induced precipitation.
The permeability ratio K(oil)/initial K(brine) is shown on the vertical y axis and this is plotted against the brine saturation (vol %) in the core.
The dark curve plotted with diamonds relates to the experiment wherein the starting point is a 10-ft pack saturated with brine (Sw=1, brine permeability Kw=960 mD). Oil is then flushed through it until the steady state is reached. During this operation, the water saturation in the pack decreases as water is mobilized and removed by the flow of oil. The oil permeability (Ko) is determined regularly during the process. The ratio K(oil)/initial K(brine) is then calculated and plotted against the water saturation. The oil permeability at steady state is 1300 mD, which gives Ko/Kwi=1.35 at Sw=29.5%.
The lighter curve plotted with triangles relates to the experiment wherein the 10-ft pack is saturated with brine (Sw=1, brine permeability Kw=800 mD). Half of it is then treated with 5 wt % resinate (calcium abietate, Dertocal) dissolved in solvent (DPM). Brine is then backflowed through the pack until the steady state is reached. […] Then, oil is flushed through the pack until the steady state is reached (Ko=1061 mD). Again, the ratio K(oil)/initial K(brine) is calculated and plotted against the water saturation. […]
The source holds these as a separate data set.

The nature of series [5]: Brine follow-up treatments, series of 3 treatments in 2-ft sand pack. Particulars: 10 wt % in DPM. How it is done: The selective response to injections of treatment fluid and brine was carried out in porous media.
An experiment was performed in a 2-ft sand pack at ambient temperature and Sw=1. The experiment consisted in a series of 3 pack treatments (using a process of treatment fluid injection followed by brine injection), followed by brine backflow between each of the three treatments. The fluid used was 10 wt % resinate (calcium abietate, Dertocal) dissolved in DPM.
The volume of the treated zone is ⅔ of the pore volume (⅓ treatment fluid+⅓ brine). As shown, permeability reduced with each treatment.

Series [6] can be described thus: Berea sandstone permeability experiments. Particulars: 10 wt % in DPM, brine postflush, 20 psi/ft. The protocol: An experiment was performed in a 1 foot 250 mD Berea sandstone core at Sw=1, using a process of treatment fluid injection followed by follow-up brine injection.
Treatment fluid used: 10 wt % resinate (Calcium abietate, Dertocal) in solvent (DPM). The volume of the treated zone was ⅔ of the pore volume (⅓ treatment fluid+⅓ brine).
Brine permeability before treatment: 250 mD.
Brine permeability in the treated zone was reduced by 70%. The biggest damage (precipitation) appeared near the wellbore (region 1) where the reduction was 73%.
The biggest damage appeared near the wellbore (regions 1) where the reduction was 60%.

Series [7] is described as follows: Abietate in pure diesel, Berea sandstone water and oil zones. To be noted: 30 wt % dissolved in diesel, 50° C. How it is done: The plot of FIG. 9 deals with the performance in water zones at 50° C. (Berea sandstone, k 100-150 mD; brine: 5 wt % NH4Cl in DI water) of the oil-based system (no miscibility with water/brine). The system contained 30 wt % calcium abietate dissolved in diesel.
The damage in the water zone was a function of the oil saturation prior to treatment. […] Since the brine and diesel-based treatment fluid are immiscible, it is unlikely that the precipitation of waxy solids accounts for the damage observed. Whilst it is possible that some minor precipitation may occur at interfaces, we suspect a viscous oil or viscous interface effect may be playing a role in reducing kbrine after backflow to steady-state.

With `CC(C)C1=CC2=CCC3[C@](C)(CCC[C@@]3(C)C(=O)O)C2CC1` (stereo partly drawn) [Abietic Acid, Abietic acid], in series [1], the “Solubility, Brine wt %” value was 0.01 wt % and the “Solubility, Solvent wt % (solvent chemistry)” value is “≧30 (DPM^(3)), ≧30 (EB^(4)) wt %”. Besides, in series [2] (5 wt % dissolved in pure DPM), the “Behaviour on dilution with brine: [brine] at precipitation” value (from here on “Behaviour on dilution with brine”) was “[brine] = 33 vol %”.
On to `CC(C)C1=CC2=CCC3C(C)(C(=O)O)CCCC3(C)C2CC1` (stereo not drawn) [Ca Abietate, Calcium abietate], for which the “Solubility, Brine wt %” value in series [1] was 0.01 wt %. Moreover, in series [2] (5 wt % dissolved in pure DPM), the “Behaviour on dilution with brine” value is “[brine] = 23 vol %”. Besides, the “Brine permeability reduction corrected for treatment depth” value in series [3] (5 wt % pre-dissolved in DPM/brine mixture) was 54%; in series [3] (20 wt % in DPM, 20 psi/ft, 25° C.) it was 65% and 69%. The “Effect on permeability to oil” value in series [3] (not told) is recorded as “no effect on permeability to oil”. Besides, the Brine permeability reduction in series [4] (5 wt % in DPM, half of 10-ft pack treated, brine backflow to steady state) came out at 25%. Also, the “Oil permeability Ko at steady state after oil flush” value in series [4] (not told) is on record as 1061 mD. Besides, the “% Reduction (cumulative)” value in series [5] (after treatment I) came to 51%; in series [5] (after treatment II), 72%; in series [5] (after treatment III), 88%. Moreover, the “Brine permeability reduction in the treated zone” value amounted to 33.5% in series [6] (T=60° C.) and 70% in series [6] (ambient temperature). In addition, the “Brine permeability reduction near the wellbore (regions 1)” value in series [6] (T=60° C.) is 60%. In series [6] (ambient temperature), the “Brine permeability reduction near the wellbore (region 1)” value turned out to be 73%. For the same compound, in series [7], the “% retained koil in oil zones” value is 85-100%. Besides, the “kbrine reduction in water zones” value in series [7] (So(pre-treatment) range 0-25%, brine 5 wt % NH4Cl) is ≥ 70%.
For the compound `CC12CCC(CC1=O)C2(C)C` (stereo not drawn) [Camphor, camphor], in series [1], the “Solubility, Brine wt %” value is recorded as “very”; the “Solubility, Oil wt %” value is “≧50.0^(7) wt %”; the “Solubility, Solvent wt % (solvent chemistry)” value is “≧50.0 (DPM^(3)) wt %”.
Regarding “calcium neo-decanoate [Ca neo-Decanoate (dry^B)]”, the “Behaviour on dilution with brine” value in series [2] (10 wt % dissolved in pure DPM) was “[brine] = 67 vol %”.
Take “calcium neo-tridecanoate [Ca neo-Tridecanoate (dry)]”: the “Behaviour on dilution with brine” value in series [2] (10 wt % dissolved in pure DPM) was “[brine] = 70 vol %”.
